Literature values in paper PMC5611894 (Journal of Alzheimer's Disease, 2017).

Assays:
Aβ42 monomers = conditions: SPR equilibrium binding, Aβ42 monomers immobilized on chip
Aβ42 oligomers = conditions: SPR equilibrium binding, Aβ42 oligomers immobilized on chip

In the case of CC[C@]12C=CCN3CC[C@]4(C(=C(C(=O)OC)C1)Nc1ccccc14)[C@@H]32 [tabersonine], the Kd (Aβ42 monomers) is given as 69 µM and the Kd (Aβ42 oligomers) is given as 535 µM.
